Data taken from EP4813980A1, “EP300/CBP REGULATOR, AND PREPARATION METHOD THEREFOR AND USE THEREOF” (Miracure Biotechnology Limited, priority 2023, dated 2025).

Assays:
[1] = target: BRD4 (Homo sapiens, UniProt O60885); assay: BRD4 counter-assay, tabulated with the CBP AlphaLISA test; type: binding; details: unit inferred
[2] = test system: 22RV1 cells; assay: Cell growth inhibition, CellTiter-Glo, 72 h; type: cell-based; details: Homo sapiens, 72 h culture, mean of N=2
Procedure, shortened: (§1)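 Cells seeded at 5×10^3/well in RPMI-1640 with 10% FBS, compound added next day at 0.5% DMSO final, 72 h at 37°C. CellTiter-Glo luminescence read; % inhibition normalised to 0.5% DMSO (0%) and 1% Tween 20 (100%), plotted against concentration in nM; mean ± SEM, N=2.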

[3] = test system: OPM-2 cells; assay: Cell growth inhibition, CellTiter-Glo, 72 h; type: cell-based; details: Homo sapiens, 72 h culture, mean of N=2
Procedure, shortened: as §1

[4] = test system: MM1S cells; assay: Cell growth inhibition, CellTiter-Glo, 72 h; type: cell-based; details: 72 h culture, mean of N=2
Procedure, shortened: as §1

[5] = target: T1, CBP bromodomain (Homo sapiens, UniProt Q92793); assay: CBP AlphaLISA Assay Kit: binding of CBP bromodomain to acetylated histone substrate; details: 30 min incubation with CBP and biotinylated substrate, N=2, unit inferred
T1 construct: purchased
Experimental: The biochemical activity test of CBP preparations was detected using CBP AlphaLISA® Assay Kit. The detection principle is based on the binding of CBP bromodomain to acetylated histone substrate. The compounds were incubated with CBP and biotinylated substrate for 30 min, followed by the addition of acceptor beads for 15 min and donor beads for 15 min. Alpha counts were read, data were analyzed using Prism 7.0 and IC50 values were calculated.

[6] = test system: vCap cells; assay: Cell growth inhibition, CellTiter-Glo, 72 h; type: cell-based; details: Homo sapiens, 72 h culture, mean of N=2
Procedure, shortened: as §1

T1 sequence (Q92793 1085-1192 limits assumed): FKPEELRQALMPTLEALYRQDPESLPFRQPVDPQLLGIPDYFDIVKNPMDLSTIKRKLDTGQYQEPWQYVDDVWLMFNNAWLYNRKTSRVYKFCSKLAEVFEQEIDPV

SMILES	IC50 [1] [nM]	IC50 [2] [nM]	IC50 [3] [nM]	IC50 ([4]; Homo sapiens, MM1.S) [nM]	IC50 [5] [nM]	IC50 [4] [nM]	IC50 [6] [nM]
C=CS(=O)(=O)N1CCC(c2cc3c(c(N4CCCc5cc(-c6cnn(C)c6)c(C(F)F)cc54)c2)CN(C(=O)NC)CC3)CC1 [Compound 1347]	> 10000	155	2	26	7.5	–	–
CO[C@H]1CC[C@H](n2c([C@@H]3CCCC(=O)N3c3ccc(F)c(F)c3)nc3cc(-c4c(C)noc4C)ccc32)CC1 [CCS1477]	7250	2520	37	–	–	220	140
C=CC(=O)N[C@H]1CC[C@@H](c2cc3c(c(N4CCCc5cc(-c6cnn(C)c6)c(C(F)F)cc54)c2)CN(C(C)=O)C3)CC1 [Compound 1339]	7430	2500	8	48	4.7	–	–
C=CS(=O)(=O)N1CCC(c2cc3c(c(N4CCCc5cc(-c6cnn(C)c6)c(C(F)F)cc54)c2)CN(C(C)=O)C3)CC1 [Compound 1344]	7920	263	15	68	7	–	33
CNC(=O)N1CCc2c(c(N3CCCc4cc(-c5cnn(C)c5)c(C(F)F)cc43)nn2[C@H]2CC[C@H](N3C(=O)C=CC3=O)CC2)C1 [Compound 1383, 3-(7-(difluoromethyl)-6-(1-methyl-1H-pyrazol-4-yl)-3,4-dihydroquinolin-1(2H)-yl)-1-((1r,4r)-4-(2,5-dioxo-2,5-dihydro-1H-pyrrol-1-yl)cyclohexyl)-N-methyl-1,4,6,7-tetrahydro-5H-pyrazolo[4,3-c]pyridine-5-carboxamide]	–	496	63	122	–	–	108
CNC(=O)N1CCc2c(c(N3CCCc4cc(-c5cnn(C)c5)c(C(F)F)cc43)nn2C2CCN(C(=O)CCl)CC2)C1 [Compound 1377, 1-(1-(2-chloroacetyl)piperidin-4-yl)-3-(7-(difluoromethyl)-6-(1-methyl-1H-pyrazol-4-yl)-3,4-dihydroquinolin-1(2H)-yl)-N-methyl-1,4,6,7-tetrahydro-5H-pyrazolo[4,3-c]pyridine-5-carboxamide]	–	4	0.2	0.3	–	–	0.5
CC(=O)N1Cc2cc(C3CCN(c4cccc5c4CN(C4CCC(=O)NC4=O)C5=O)CC3)cc(N3CCCc4cc(-c5cnn(C)c5)c(C(F)F)cc43)c2C1 (stereo not shown) [Compound 2080, 3-[4-(4-{2-acetyl-7-[7-(difluoromethyl)-6-(1-methylpyrazol-4-yl)-3,4-dihydro-2H-quinolin-1-yl]-1,3-dihydroisoindol-5-yl}piperidin-1-yl)-1-oxo-3H-isoindol-2-yl]piperidine-2,6-dione]	–	3.97	0.52	1.16	–	–	1.17
C=CS(=O)(=O)N[C@H]1CC[C@@H](c2cc3c(c(N4CCCc5cc(-c6cnn(C)c6)c(C(F)F)cc54)c2)CN(C(C)=O)C3)CC1 [Compound 1345, N-((1s,4s)-4-(2-acetyl-7-(7-(difluoromethyl)-6-(1-methyl-1H-pyrazol-4-yl)-3,4-dihydroquinolin-1(2H)-yl)isoindolin-5-yl)cyclohexyl)ethenesulfonamide]	> 10000	48	4	15	9.3	–	12
C=CS(=O)(=O)N1CCC(c2cc3c(c(N4CCCc5cc(-c6cnn(C)c6)c(C(F)F)cc54)c2)CN(C(=O)NC)C3)CC1 [Compound 1391, 4-(7-(difluoromethyl)-6-(1-methyl-1H-pyrazol-4-yl)-3,4-dihydroquinolin-1(2H)-yl)-N-methyl-6-(1-(vinylsulfonyl)piperidin-4-yl)isoindoline-2-carboxamide]	–	438	33	117	–	–	191
C=CS(=O)(=O)N[C@H]1CC[C@H](c2cc3c(c(N4CCCc5cc(-c6cnn(C)c6)c(C(F)F)cc54)c2)CN(C(C)=O)C3)CC1 [Compound 1343]	7880	205	8	39	7.5	–	–
C=CS(=O)(=O)N[C@H]1CC[C@@H](c2cc3c(c(N4CCCc5cc(-c6cnn(C)c6)c(C(F)F)cc54)c2)CN(C(=O)NC)CC3)CC1 [Compound 1366, 8-(7-(difluoromethyl)-6-(1-methyl-1H-pyrazol-4-yl)-3,4-dihydroquinolin-1(2H)-yl)-N-methyl-6-((1s,4s)-4-(vinylsulfonamido)cyclohexyl)-3,4-dihydroisoquinoline-2(1H)-carboxamide]	–	131	5	24	–	–	28
CC(=O)N1Cc2cc([C@H]3CC[C@H](NC(=O)CCl)CC3)cc(N3CCCc4cc(-c5cnn(C)c5)c(C(F)F)cc43)c2C1 [Compound 1362]	–	51	2	3	–	–	6
CC(=O)N1Cc2cc(C3CCN(C(=O)/C=C/CN(C)C)CC3)cc(N3CCCc4cc(-c5cnn(C)c5)c(C(F)F)cc43)c2C1 [Compound 1357]	5710	5420	–	58	0.96	–	–
C=CS(=O)(=O)N1CCC(n2nc(N3CCCc4cc(-c5cnn(C)c5)c(C5CC5)cc43)c3c2CCN(C(=O)NC)C3)CC1 [Compound 1378, 3-[7-cyclopropyl-6-(1-methylpyrazol-4-yl)-3,4-dihydro-2H-quinolin-1-yl]-1-(1-(vinylsulfonyl)piperidin-4-yl)-N-methyl-4H,6H,7H-pyrazolo[4,3-c]pyridine-5-carboxamide]	–	10	2	3	–	–	3
C=CS(=O)(=O)N[C@H]1CC[C@@H](n2nc(N3CCCc4cc(-c5cnn(C)c5)c(C(F)F)cc43)c3c2CCN(C(=O)NC)C3)CC1 [Compound 1375, 3-(7-(difluoromethyl)-6-(1-methyl-1H-pyrazol-4-yl)-3,4-dihydroquinolin-1(2H)-yl)-N-methyl-1-((1s,4s)-4-(vinylsulfonamido)cyclohexyl)-1,4,6,7-tetrahydro-5H-pyrazolo[4,3-c]pyridine-5-carboxamide]	–	16	1	2	–	–	2
CC(=O)N1Cc2cc(C3CCN(CC4CCN(c5ccc6c(c5)CN(C5CCC(=O)NC5=O)C6=O)CC4)CC3)cc(N3CCCc4cc(-c5cnn(C)c5)c(C(F)F)cc43)c2C1 (stereo not shown) [Compound 2058]	–	0.31	0.23	0.3	–	–	0.29
CC(=O)N1Cc2cc([C@H]3CC[C@@H](CN4Cc5cc6c(cc5C4)C(=O)N(C4CCC(=O)NC4=O)C6=O)CC3)cc(N3CCCc4cc(-c5cnn(C)c5)c(C(F)F)cc43)c2C1 (relative stereo) [Compound 2082, 6-(((1s,4s)-4-(2-acetyl-7-(7-(difluoromethyl)-6-(1-methyl-1H-pyrazol-4-yl)-3,4-dihydroquinolin-1(2H)-yl)isoindolin-5-yl)cyclohexyl)methyl)-2-(2,6-dioxopiperidin-3-yl)-6,7-dihydropyrrolo[3,4-f]isoindole-1,3(2H,5H)-dione]	–	47	4	25	–	–	13
